Literature values, collected in US20040209344A1, “Crystal structure of angiotensin-converting enzyme-related carboxypeptidase” (priority 2002, published 2004).
Entries after “also recorded” stand apart in the source; their conditions may differ. Like-named read-outs stand apart in the source and are kept apart here.

Experiments:
ACE2 [1] = molecular target: T1, ACE2 (Homo sapiens, UniProt Q9BYF1)
Target sequence in this assay (Q9BYF1 18-805): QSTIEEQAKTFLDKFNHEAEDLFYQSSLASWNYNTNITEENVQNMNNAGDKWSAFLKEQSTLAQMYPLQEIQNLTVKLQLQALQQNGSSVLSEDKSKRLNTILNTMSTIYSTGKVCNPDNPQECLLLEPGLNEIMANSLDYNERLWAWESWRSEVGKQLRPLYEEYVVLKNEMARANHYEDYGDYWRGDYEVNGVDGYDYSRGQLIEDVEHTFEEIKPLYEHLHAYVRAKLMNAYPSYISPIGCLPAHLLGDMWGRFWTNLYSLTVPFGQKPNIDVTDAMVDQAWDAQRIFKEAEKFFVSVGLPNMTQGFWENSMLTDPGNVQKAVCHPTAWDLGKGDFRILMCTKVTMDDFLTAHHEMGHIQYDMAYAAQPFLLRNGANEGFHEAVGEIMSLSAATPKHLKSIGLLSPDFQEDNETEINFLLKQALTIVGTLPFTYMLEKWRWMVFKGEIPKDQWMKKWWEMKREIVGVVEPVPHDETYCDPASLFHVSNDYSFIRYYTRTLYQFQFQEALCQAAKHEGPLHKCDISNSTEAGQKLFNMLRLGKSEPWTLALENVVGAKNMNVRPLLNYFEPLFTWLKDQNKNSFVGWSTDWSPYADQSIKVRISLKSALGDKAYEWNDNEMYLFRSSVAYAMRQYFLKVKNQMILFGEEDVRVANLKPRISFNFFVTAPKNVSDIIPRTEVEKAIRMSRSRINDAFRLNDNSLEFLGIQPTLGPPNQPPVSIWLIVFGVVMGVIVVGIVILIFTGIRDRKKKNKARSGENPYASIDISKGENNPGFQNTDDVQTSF

ACE2 [2] = molecular target: T1, ACE2; set-up: made in house; host or cells: SF9 insect cells, baculovirus (pBac Pak9 vector), secreted into the culture supernatant; details: Tipnis et al.
Target sequence in this assay (Q9BYF1 19-740): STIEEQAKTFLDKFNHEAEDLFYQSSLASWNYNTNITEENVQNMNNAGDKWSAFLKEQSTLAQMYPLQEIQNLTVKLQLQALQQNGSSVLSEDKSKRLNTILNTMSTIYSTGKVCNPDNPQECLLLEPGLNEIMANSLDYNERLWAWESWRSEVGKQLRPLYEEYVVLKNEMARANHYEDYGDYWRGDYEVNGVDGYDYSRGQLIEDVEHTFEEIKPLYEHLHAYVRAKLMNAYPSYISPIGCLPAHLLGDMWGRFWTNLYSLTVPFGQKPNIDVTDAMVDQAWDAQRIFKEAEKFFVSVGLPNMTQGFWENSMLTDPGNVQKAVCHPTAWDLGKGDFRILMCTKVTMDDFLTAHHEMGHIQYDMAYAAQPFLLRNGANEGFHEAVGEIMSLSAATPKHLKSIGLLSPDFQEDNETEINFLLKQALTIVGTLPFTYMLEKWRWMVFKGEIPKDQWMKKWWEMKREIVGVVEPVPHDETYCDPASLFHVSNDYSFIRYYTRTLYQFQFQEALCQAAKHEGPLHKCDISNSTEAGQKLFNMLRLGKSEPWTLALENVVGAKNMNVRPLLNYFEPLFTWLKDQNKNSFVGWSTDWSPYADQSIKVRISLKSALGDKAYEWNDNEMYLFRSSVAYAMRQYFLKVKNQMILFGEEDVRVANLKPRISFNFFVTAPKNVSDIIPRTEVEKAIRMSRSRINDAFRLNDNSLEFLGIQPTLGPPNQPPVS

[3] = molecular target: somatic ACE D991 to E mutant (Homo sapiens, UniProt P12821, D1020E); details: mutation of D991 to E in somatic ACE; Williams et al.
Sequence of somatic ACE D991 to E mutant (P12821 30-1306 D1020E): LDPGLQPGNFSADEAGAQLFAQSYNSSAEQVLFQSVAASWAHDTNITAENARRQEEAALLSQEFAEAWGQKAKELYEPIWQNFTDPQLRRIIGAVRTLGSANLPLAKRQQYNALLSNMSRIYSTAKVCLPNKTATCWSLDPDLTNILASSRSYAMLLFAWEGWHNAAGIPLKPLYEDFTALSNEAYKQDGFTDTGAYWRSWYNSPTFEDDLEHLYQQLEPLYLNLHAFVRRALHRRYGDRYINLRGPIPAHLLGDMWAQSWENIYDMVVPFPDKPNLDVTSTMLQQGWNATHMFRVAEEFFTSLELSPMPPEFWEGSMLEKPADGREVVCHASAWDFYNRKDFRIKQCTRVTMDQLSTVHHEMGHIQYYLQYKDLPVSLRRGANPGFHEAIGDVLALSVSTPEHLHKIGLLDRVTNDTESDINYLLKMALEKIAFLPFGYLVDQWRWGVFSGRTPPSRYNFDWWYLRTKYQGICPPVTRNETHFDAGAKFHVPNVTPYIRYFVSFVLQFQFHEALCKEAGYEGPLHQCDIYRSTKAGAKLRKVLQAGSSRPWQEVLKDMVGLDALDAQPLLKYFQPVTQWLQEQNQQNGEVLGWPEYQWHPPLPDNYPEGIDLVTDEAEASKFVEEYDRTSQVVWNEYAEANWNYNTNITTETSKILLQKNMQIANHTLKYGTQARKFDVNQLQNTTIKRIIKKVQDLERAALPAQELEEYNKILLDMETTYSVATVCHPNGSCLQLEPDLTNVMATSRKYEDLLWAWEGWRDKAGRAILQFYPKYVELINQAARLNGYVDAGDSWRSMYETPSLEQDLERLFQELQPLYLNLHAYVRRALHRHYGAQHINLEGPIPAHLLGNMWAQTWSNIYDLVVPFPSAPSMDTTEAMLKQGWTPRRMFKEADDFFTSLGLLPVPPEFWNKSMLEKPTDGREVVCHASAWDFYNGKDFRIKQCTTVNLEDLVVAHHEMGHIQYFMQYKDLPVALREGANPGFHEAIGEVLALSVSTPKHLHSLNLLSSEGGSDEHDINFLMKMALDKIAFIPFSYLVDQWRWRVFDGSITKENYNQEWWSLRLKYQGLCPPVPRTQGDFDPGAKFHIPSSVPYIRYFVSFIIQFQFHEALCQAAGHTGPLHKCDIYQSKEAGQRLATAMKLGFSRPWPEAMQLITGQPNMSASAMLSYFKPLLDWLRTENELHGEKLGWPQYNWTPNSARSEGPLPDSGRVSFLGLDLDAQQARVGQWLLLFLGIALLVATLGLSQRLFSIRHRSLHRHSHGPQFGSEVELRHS

| Compound | activity as peptide substrate for ACE2 (ACE2 [1]; Vickers et al.) | other results |
| --- | --- | --- |
| Dynorphin A 1-13 | best in vitro peptide substrates | – |
| Angiotensin 1-9: peptide DRVYIHPFH; SEQ ID NO: 3 | inactive | – |
| C[C@H](CS)C(=O)N1CCC[C@H]1C(=O)O [captopril] | – | inhibition of ACE2 by ACE inhibitors (ACE2 [2]): did not inhibit; also recorded: not active |
| C[C@H](N[C@@H](CCc1ccccc1)C(=O)O)C(=O)N1[C@H](C(=O)O)C[C@H]2CCCC[C@@H]21 [trandolaprilat] | – | decrease in affinity for the inhibitor [3]: about 8 fold |
| Met-enkephalin: peptide YGGFM; SEQ ID NO: 9 | inactive | – |
| Angiotensin 1-5: peptide DRVYI; SEQ ID NO: 10 | inactive | – |
| Leu-enkephalin: peptide YGGFL; SEQ ID NO: 8 | inactive | – |
| Apelin 13 | – | activity as peptide substrate for ACE2 (ACE2 [1]): best in vitro peptide substrates |
| des-Arg^9 bradykinin | best in vitro peptide substrates | – |
| Angiotensin II: vasoconstrictor peptide DRVYIHPF; SEQ ID NO: 2 | best in vitro peptide substrates | – |
